“Also recorded” adds a separate entry of the source.
Experiments:
pAMPK (T172) = assay: ELISA of pAMPK (T172) in PANC-1 cells; type: cell-based, human; settings: rIGF1, 5 μM, 24 hours
Experimental: (§1) ELISA assay was used to evaluate the effect of GS compounds on protein activity levels in PANC-1 cancer cells. PANC-1 cells were serum-starved overnight and then treated with rIGF1 (100 ng/mL) for 24 hours, with or without GS27 (5 μM). The levels of the following proteins were evaluated by ELISA assay: a) p70 S6 (T389) (cat no. 54164C, Cell Signaling); b) pAKT (S473), (cat no. 80895, Cell Signaling); c) pACLY (S455), (cat no. okag1672, Avivasysbio); d) pAMPK (T172) (cat no. 7959C, Cell Signaling) and e) p65/NFKB (S536), (cat no. 7173, Cell Signaling).
(§2) PANC-1 is a human pancreatic ductal adenocarcinoma cell line derived from the carcinoma of a person.
(§3) The molecular mechanism of action of GS27, a compound that has exerted potent anti-cancer activity in different cancer cell lines including pancreatic cancer cells, was investigated. Oleacein has been implicated to have anti-inflammatory and metabolic effects, thus the potential effects of GS27 in different metabolic and inflammatory pathways were evaluated. Specifically, the protein levels of p70 S6 (T389), pAKT (S473), pACLY (S455), pAMPK (T172) and p65/NFKB (S536) were evaluated by ELISA assay in PANC-1 pancreatic cancer cells treated with 5 μM GS27. GS27 reduced p70 S6 and AKT phosphorylation levels, while it increased AMPK phosphorylation.

pAKT (S473) = assay: ELISA of pAKT (S473) in PANC-1 cells; type: cell-based, human; settings: rIGF1, 5 μM, 24 hours
Experimental: as §1, §2, §3

[1] = tested on: C4-2 castration-resistant prostate cells; assay: C4-2 castration-resistant prostate cancer cell growth; type: cell-based; settings: 72 hours, androgen-depleted conditions
Experimental: The effect of GS27 on castration-resistant prostate cancer cells was evaluated, alone and in combination with enzalutamide (ENZ). Enzalutamide (XTANDI; Astellas Pharma), is an androgen receptor inhibitor used for treatment of patients with prostate cancer. In a further study, the effect of G27 in combination with ENZ on castration-resistant prostate cancer cells was compared to combination treatment of NDI-091143 with ENZ.
C4-2 Castration-resistant prostate cells cultured in androgen-depleted conditions were treated with 1 μM of GS27, in the presence or absence of 10 μM of enzalutamide (ENZ) for 72 hours.
C4-2 castration-resistant prostate cells cultured in androgen-depleted conditions were treated with 1 μM of GS27 or NDI-091143, in the presence of 10 μM of enzalutamide (ENZ) for 72 hours.

p70 S6 (T389) = assay: ELISA of p70 S6 (T389) in PANC-1 cells; type: cell-based, human; settings: rIGF1, 5 μM, 24 hours
Experimental: as §1, §2, §3

Raw 264.7 cells = assay: Raw 264.7 macrophage cell growth (trypan blue count); type: cell-based, BALB/C mice; settings: 1, 10, 25, 50, 100, 200 μM, 24 h
Experimental: The effect of GS27 on the growth of Raw 264.7 cells was evaluated to examine GS27 potential toxicity effects. RAW 264.7 cells are macrophage-like Abelson leukemia virus transformed cell line derived from BALB/C mice. The cell line was obtained from ATCC.
RAW 264.7 cells were maintained at 37° C., in a 5% CO2 and 100% humidity incubator and grown in suspension, in non-adherent flasks, in RPMI 1640-Glutamax to which was added 50 U/mL of penicillin, 50 μg/mL streptomycin and 10% (v/v) fetal bovine serum (FBS). These cells were exposed to increasing doses of GS27 (1, 10, 25, 50, 100, 200 μM) for 24 h and after the exposure period, the cells were harvested with trypsin-EDTA and trypan blue was applied to the cell suspension. Non-colored and blue cells were counted while using an automated cell counter.

HepG2 liver cancer tumor = assay: HepG2 xenograft mouse model; type: in vivo, nu/nu mice; settings: 20 mg/kg i.p. every 5 days, until 20 days post-treatment
Experimental: The effect of GS27 on liver cancer tumor growth in mice was evaluated in a HepG2 xenograft mouse model. HepG2 is a human liver cancer cell line, obtained from ATCC (cat. No HB-8065). Since hepatocellular carcinoma is often treated with the chemotherapeutic agent doxorubicin and embolization, results were compared to those obtained with doxorubicin.
Xenograft tumors were generated by injecting HepG2 liver cancer cells (2.5×10^6) into the right flank of female nu/nu mice (Charles River Laboratories). All mice developed tumors in 10 days with size of approximately 100 mm3. For each experiment, mice were randomly distributed into equal groups (4 mice per group) that were untreated, or treated by intraperitoneal injections every 5 days with 20 mg/kg GS27 or doxorubicin. Tumor volume (average, SD) was evaluated until 20 days post-treatment.

p65/NFKB (S536) = assay: ELISA of p65/NFKB (S536) in PANC-1 cells; type: cell-based, human; settings: rIGF1, 5 μM, 24 hours
Experimental: as §1, §2, §3

TNF-α = assay: ELISA of TNF-α in PMA/LPS-treated THP-1 cells; type: cell-based, human; settings: THP-1, PMA then LPS 100 ng/ml 24 hours, 5 uM compound added 2 hours before LPS
Experimental: Human monocytes (THP-1, ATCC) were cultured in RPMI 1640 media supplemented with HEPES buffer (10 mM), sodium pyruvate (1 mM), glucose (4.5 g/L), fetal bovine serum (10%), penicillin (100 U/mL), streptomycin (100 μg/mL), and 2-mercaptoethanol (0.05 mM). THP-1 cells were treated with PMA (100 ng/ml) for 48 hours and then washed and rested for 24 hours in PMA-free media. These cells were treated with LPS (100 ng/ml) for 24 hours in the presence or absence of 5 uM of […] compounds (added 2 hours before LPS). Cell culture supernatants were collected and IL-1β (cat. No DLB50, R&D Systems), TNF-α (cat. no. DTA00D, R&D Systems) and IL-6 (cat. No D6050, R&D Systems) protein levels were evaluated by ELISA assay.

[2] = tested on: LNCaP prostate cancer cells; settings: literature; cited from earlier work

With `C/C=C(/C=O)[C@@H](CC=O)CC(=O)SCCc1ccccc1` [GS27, S-phenethyl (3S,4E)-4-formyl-3-(2-oxoethyl)hex-4-enethioate] the AMPK phosphorylation (pAMPK (T172)) was “increased”, the AKT phosphorylation levels (pAKT (S473)) was “reduced” and the “growth of C4-2 prostate cancer cells, combination with enzalutamide” value ([1]; 1 μM plus 10 μM enzalutamide) was “substantial additive effect; also recorded: more effective than NDI-091143 and enzalutamide”. The “growth of C4-2 prostate cancer cells, compound alone” value ([1]; 1 μM) was “inhibited the growth”, the “p70 S6 phosphorylation levels” value (p70 S6 (T389)) was “reduced” and the “effect on Raw 264.7 cell growth” value (Raw 264.7 cells) was “no effect”. For the same compound, the “reduction in the tumor size, HepG2 liver cancer” value (HepG2 liver cancer tumor) was 80% and the p65/NFKB activity (p65/NFKB (S536)) was “inhibiting”.

For `C/C=C(/C=O)[C@@H](CC=O)CC(=O)OCCOc1ccccc1` [GS24, (3S,4E)-4-formyl-3-(2-oxoethyl)-4-hexenoic acid 2-phenoxyethyl ester], the TNF-α protein levels (TNF-α) was “reducing substantially”.

In the case of `C/C=C(/C=O)[C@@H](CC=O)CC(=O)OCCc1ccc(O)cc1` [GS19, (3S,4E)-4-formyl-3-(2-oxoethyl)-4-hexenoic acid 2-(4-hydroxyphenyl)ethyl ester, reference compound], the “concentration found to reduce LNCaP prostate cancer cell growth” value [2] is listed as 500 µM.

Reference: patent US12414960B2, “Analogues of oleuropein and oleacein and uses thereof” (Attica Sciences Ltd., priority 2020, dated 2025)
